Laboratory results published in PubChem BioAssay AID248 (DTP/NCI, 2004).
Values joined by “and” are separate entries in the source; they are usually repeats but may differ in a detail not shown here. Equal entries are not always repeated. Toxic doses and inconclusive results are not listed.

Tested on: L1210 leukemia ip in BDF1 mice, survival T/C
Experiment: NCI In Vivo Anticancer Drug Screen. Data for tumor model L1210 Leukemia (intraperitoneal) in B6D2F1 (BDF1) mice
Conditions: endpoint: mean survival time, higher = longer survival
Outline: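 In this screen, tumor-bearing mice given compound are compared to those given vehicle, and their survival values are reported as a treated-to-control quotient.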

[1] = dose: 100.0 mg/kg/injection, schedule: Q01DX001 (ip), vehicle: saline
[2] = dose: 200.0 mg/kg/injection, schedule: Q01DX001 (ip), vehicle: saline

SMILES: c1c[nH]c(C2Nc3ccccc3S2)c1 (stereo not given)
- T/C [1]: 93 % of control
- T/C [2]: 95 % of control

SMILES: Cc1ccccc1SC(=O)Nc1cccc(Cl)c1Cl
- T/C (dose: 25.0 mg/kg/injection, schedule: Q01DX009 (ip), vehicle: Klucel (hydroxypropylcellulose) (HPC)): 112 % of control
- T/C (dose: 50.0 mg/kg/injection, schedule: Q01DX009 (ip), vehicle: Klucel (hydroxypropylcellulose) (HPC)): 104 % of control
- T/C (dose: 100.0 mg/kg/injection, schedule: Q01DX009 (ip), vehicle: Klucel (hydroxypropylcellulose) (HPC)): 94 % of control and 103 % of control
- T/C (dose: 200.0 mg/kg/injection, schedule: Q01DX009 (ip), vehicle: Klucel (hydroxypropylcellulose) (HPC)): 87 % of control

SMILES: Cc1cc(=O)[nH]c2ccc(Cc3ccc4[nH]c(=O)cc(C)c4c3)cc12
- T/C [1]: 102 % of control
- T/C [2]: 102 % of control
- T/C (dose: 400.0 mg/kg/injection, schedule: Q01DX001 (ip), vehicle: saline): 107 % of control

SMILES: O=C(O)CCSC(c1ccccc1)(c1ccccc1)c1ccccc1
- T/C (dose: 25.0 mg/kg/injection, schedule: Q01DX009 (ip), vehicle: saline): 102 % of control
- T/C (dose: 50.0 mg/kg/injection, schedule: Q01DX009 (ip), vehicle: saline): 103 % of control
- T/C (dose: 100.0 mg/kg/injection, schedule: Q01DX009 (ip), vehicle: saline): 96 % of control
- T/C (dose: 200.0 mg/kg/injection, schedule: Q01DX009 (ip), vehicle: saline): 100 % of control
- T/C (dose: 300.0 mg/kg/injection, schedule: Q01DX009 (ip), vehicle: saline): 96 % of control
- T/C (dose: 400.0 mg/kg/injection, schedule: Q01DX009 (ip), vehicle: saline): 96 % of control

SMILES: O=C(Nc1ccc(C2=NCCCN2)cc1)Nc1cccc(C(=O)Nc2ccc(C3=NCCCN3)cc2)c1
- T/C (dose: 1.25 mg/kg/injection, schedule: Q01DX Z (ip), vehicle: carboxymethylcellulose (CMC)): 101 % of control
- T/C (dose: 2.5 mg/kg/injection, schedule: Q01DX Z (ip), vehicle: carboxymethylcellulose (CMC)): 106 % of control
- T/C (dose: 5.0 mg/kg/injection, schedule: Q01DX Z (ip), vehicle: carboxymethylcellulose (CMC)): 109 % of control
- T/C (dose: 7.5 mg/kg/injection, schedule: Q01DX Z (ip), vehicle: carboxymethylcellulose (CMC)): 112 % of control
- T/C (dose: 10.0 mg/kg/injection, schedule: Q01DX Z (ip), vehicle: carboxymethylcellulose (CMC)): 162 % of control
- T/C (dose: 15.0 mg/kg/injection, schedule: Q01DX Z (ip), vehicle: carboxymethylcellulose (CMC)): 171 % of control
- T/C (dose: 20.0 mg/kg/injection, schedule: Q01DX Z (ip), vehicle: carboxymethylcellulose (CMC)): 190 % of control
- T/C (dose: 30.0 mg/kg/injection, schedule: Q01DX Z (ip), vehicle: carboxymethylcellulose (CMC)): 118 % of control
- T/C (dose: 40.0 mg/kg/injection, schedule: Q01DX Z (ip), vehicle: carboxymethylcellulose (CMC)): 86 % of control
- T/C (dose: 62.0 mg/kg/injection, schedule: Q01DX Z (oral), vehicle: carboxymethylcellulose (CMC)): 102 % of control
- T/C (dose: 125.0 mg/kg/injection, schedule: Q01DX Z (oral), vehicle: carboxymethylcellulose (CMC)): 105 % of control
- T/C (dose: 250.0 mg/kg/injection, schedule: Q01DX Z (oral), vehicle: carboxymethylcellulose (CMC)): 102 % of control
- T/C (dose: 500.0 mg/kg/injection, schedule: Q01DX Z (oral), vehicle: carboxymethylcellulose (CMC)): 107 % of control

SMILES: NN(C(=O)c1ccc([N+](=O)[O-])cc1)c1ccccc1
- T/C (dose: 75.0 mg/kg/injection, schedule: Q01DX001 (ip), vehicle: saline): 95 % of control
- T/C (dose: 150.0 mg/kg/injection, schedule: Q01DX001 (ip), vehicle: saline): 93 % of control
- T/C (dose: 300.0 mg/kg/injection, schedule: Q01DX001 (ip), vehicle: saline): 90 % of control

SMILES: CC(=O)OC1CCC2(C)C(C1)CC(OC(C)=O)C1C2CCC2(C)C(C(C)CCC(=O)O)CCC12 (stereo not given)
- T/C (dose: 100.0 mg/kg/injection, schedule: Q01DX001 (ip), vehicle: saline with Tween-80): 92 % of control
- T/C (dose: 200.0 mg/kg/injection, schedule: Q01DX001 (ip), vehicle: saline with Tween-80): 97 % of control
- T/C (dose: 400.0 mg/kg/injection, schedule: Q01DX001 (ip), vehicle: saline with Tween-80): 92 % of control

SMILES: CC(C)C(C(=O)c1ccccc1)c1ccccc1 (stereo not given)
- T/C (dose: 100.0 mg/kg/injection, schedule: Q01DX009 (ip), vehicle: saline with Tween-80): 93 % of control
- T/C (dose: 100.0 mg/kg/injection, schedule: Q04DX003 (ip), vehicle: saline with Tween-80): 99 % of control
- T/C (dose: 200.0 mg/kg/injection, schedule: Q01DX009 (ip), vehicle: saline with Tween-80): 93 % of control
- T/C (dose: 200.0 mg/kg/injection, schedule: Q04DX003 (ip), vehicle: saline with Tween-80): 100 % of control
- T/C (dose: 400.0 mg/kg/injection, schedule: Q01DX009 (ip), vehicle: saline with Tween-80): 104 % of control
- T/C (dose: 400.0 mg/kg/injection, schedule: Q04DX003 (ip), vehicle: saline with Tween-80): 89 % of control
